This note sets out measurements from patent publication US9149038B2, “4-amino-6-(heterocyclic)picolinates and 6-amino-2-(heterocyclic)pyrimidine-4-carboxylates and their use as herbicides” (Dow AgroSciences LLC, priority 2013, dated 2015).

Molecules are shown by their SMILES. Read-outs that look alike come from different tables or passages of the source.

In test [1] the test system is Key Broadleaf Weed and Crop Species. Briefly: Post-Emergent Test II: postemergent herbicidal activity, visual rating after 14 d (Table 7). The class given is in vivo. As to conditions: post-emergence, 336 h; for pest or weed control at 140 g/ha: 140 g ai/ha; for pest or weed control at 35 g/ha: 35 g ai/ha; for pest or weed control at 70 g/ha: 70 g ai/ha. The source says:
(§1) Herbicidal evaluations were made visually on a scale of 0 to 100 where 0 represents no activity and 100 represents complete plant death.
(§2) Seeds or nutlets of the desired test plant species were planted in Sun Gro Metro-Mix® 360 planting mixture, which typically has a pH of 6.0 to 6.8 and an organic matter content of about 30 percent, in plastic pots with a surface area of 64 square centimeters (cm^2). When required to ensure good germination and healthy plants, a fungicide treatment and/or other chemical or physical treatment was applied. The plants were grown for 7-21 d in a greenhouse with an approximate 15 h photoperiod which was maintained at about 23-29° C. during the day and 22-28° C. during the night. Nutrients and water were added on a regular basis and supplemental lighting was provided with overhead metal halide 1000-Watt lamps as necessary. The plants were employed for testing when they reached the first or second true leaf stage.
(§3) A weighed amount, determined by the highest rate to be tested, of each test compound was placed in a 25 mL glass vial and was dissolved in 4 mL of a 97:3 v/v mixture of acetone and DMSO to obtain concentrated stock solutions. […] The concentrated stock solutions obtained were diluted with 20 mL of an aqueous mixture containing acetone, water, isopropyl alcohol, DMSO, Atplus 411F crop oil concentrate, and Triton® X-155 surfactant in a 48.5:39:10:1.5:1.0:0.02 v/v ratio to obtain spray solutions containing the highest application rates. Additional application rates were obtained by serial dilution of 12 mL of the high rate solution into a solution containing 2 mL of a 97:3 v/v mixture of acetone and DMSO and 10 mL of an aqueous mixture containing acetone, water, isopropyl alcohol, DMSO, Atplus 411F crop oil concentrate, and Triton X-155 surfactant in a 48.5:39:10:1.5:1.0:0.02 v/v ratio to obtain ½×, ¼×, ⅛× and 1/16× rates of the high rate. Compound requirements are based upon a 12 mL application volume at a rate of 187 liters per hectare (L/ha). Formulated compounds were applied to the plant material with an overhead Mandel track sprayer equipped with 8002E nozzles calibrated to deliver 187 L/ha over an application area of 0.503 square meters at a spray height of 18 inches (43 cm) above the average plant canopy height. Control plants were sprayed in the same manner with the solvent blank.
(§4) The treated plants and control plants were placed in a greenhouse as described above and watered by subirrigation to prevent wash-off of the test compounds. After 14 d, the condition of the test plants as compared with that of the untreated plants was determined visually and scored on a scale of 0 to 100 percent where 0 corresponds to no injury and 100 corresponds to complete kill and are presented as indicated in Table 4.

The test system of test [2] is Key Grass and Sedge Weeds as well as Grass Crops. Briefly: Post-Emergent Test II: postemergent herbicidal activity, visual rating after 14 d (Table 8). Format: in vivo. As to conditions: post-emergence, 336 h; for pest or weed control at 140 g/ha: 140 g ai/ha; for pest or weed control at 35 g/ha: 35 g ai/ha; for pest or weed control at 70 g/ha: 70 g ai/ha.
From the text: as §1, §2, §3, §4

[3] abbreviates: lambsquarters (Chenopodium album), read-out: Visual Growth Reduction (%) 14 Days After Application CHEAL.
Where [4] appears, read: oilseed rape, canola (Brassica napus), read-out: Visual Growth Reduction (%) 14 Days After Application BRSNN.
The mark [5] stands for this setting: redroot pigweed (Amaranthus retroflexus), read-out: Visual Growth Reduction (%) 14 Days After Application AMARE.
[6] abbreviates: sunflower (Helianthus annuus), read-out: Visual Growth Reduction (%) 14 Days After Application HELAN.
The mark [7] stands for this setting: velvetleaf (Abutilon theophrasti), read-out: Visual Growth Reduction (%) 14 Days After Application ABUTH.
The mark [8] stands for this setting: wild poinsettia (Euphorbia heterophylla), read-out: Visual Growth Reduction (%) 14 Days After Application EPHHL.
Setting [9] is: barnyardgrass (Echinochloa crus-galli), read-out: Visual Growth Reduction (%) 14 Days After Application ECHCG.
The mark [10] stands for this setting: maize, corn (Zea mays), read-out: Visual Growth Reduction (%) 14 Days After Application ZEAMX.
Setting [11] is: rice (Oryza sativa), read-out: Visual Growth Reduction (%) 14 Days After Application ORYSA.
Where [12] appears, read: wheat, spring (Triticum aestivum), read-out: Visual Growth Reduction (%) 14 Days After Application TRZAS.
[13] abbreviates: yellow nutsedge (Cyperus esculentus), read-out: Visual Growth Reduction (%) 14 Days After Application CYPES.

For the compound `COC(=O)c1nc(-c2ccc3c(c2)CCN3C)c(F)c(N)c1Cl` [Compound 107], the pest or weed control at 140 g/ha lay within 60 to 74% in test [1] (ABUTH: velvetleaf (Abutilon theophrasti), read-out: Visual Growth Reduction (%) 14 Days After Application ABUTH); 0 to 29% in test [1] (AMARE: redroot pigweed (Amaranthus retroflexus), read-out: Visual Growth Reduction (%) 14 Days After Application AMARE); 0 to 29% in test [1] (BRSNN: oilseed rape, canola (Brassica napus), read-out: Visual Growth Reduction (%) 14 Days After Application BRSNN); 85 to 94% in test [1] (CHEAL: lambsquarters (Chenopodium album), read-out: Visual Growth Reduction (%) 14 Days After Application CHEAL); 95 to 100% in test [1] (EPHHL: wild poinsettia (Euphorbia heterophylla), read-out: Visual Growth Reduction (%) 14 Days After Application EPHHL); 0 to 29% in test [1] (HELAN: sunflower (Helianthus annuus), read-out: Visual Growth Reduction (%) 14 Days After Application HELAN). Besides, the pest or weed control at 140 g/ha lay in the range of 0 to 29% in test [2] (barnyardgrass (Echinochloa crus-galli), read-out: Visual Growth Reduction (%) 14 Days After Application, ECHCG); 0 to 29% in test [2] (giant foxtail (Setaria faberi), read-out: Visual Growth Reduction (%) 14 Days After Application, SETFA); 0 to 29% in test [2] (maize, corn (Zea mays), read-out: Visual Growth Reduction (%) 14 Days After Application, ZEAMX); 0 to 29% in test [2] (rice (Oryza sativa), read-out: Visual Growth Reduction (%) 14 Days After Application, ORYSA); 0 to 29% in test [2] (wheat, spring (Triticum aestivum), read-out: Visual Growth Reduction (%) 14 Days After Application, TRZAS); 0 to 29% in test [2] (yellow nutsedge (Cyperus esculentus), read-out: Visual Growth Reduction (%) 14 Days After Application, CYPES).

For `COC(=O)c1nc(-c2cc3c(cc2Cl)OC(F)(F)O3)cc(N)c1Cl` [Compound 40], the pest or weed control at 35 g/ha in test [1] (setting [3]), in test [1] (setting [4]), in test [1] (setting [5]), in test [1] (setting [6]), in test [1] (setting [7]) and in test [1] (setting [8]) was 0 to 29% throughout. Besides, the pest or weed control at 35 g/ha in test [2] (setting [9]), in test [2] (setting [10]), in test [2] (setting [11]), in test [2] (setting [12]) and in test [2] (setting [13]) was 0 to 29% each time. Further, the pest or weed control at 70 g/ha in test [1] (setting [3]) was in the range of 0 to 29%; in test [1] (setting [4]), 0 to 29%; in test [1] (setting [5]), 95 to 100%; in test [1] (setting [6]) it was 0 to 29%; in test [1] (setting [7]) it was 0 to 29%; in test [1] (setting [8]) it was 0 to 29%. Also, the pest or weed control at 70 g/ha in test [2] (setting [9]), in test [2] (setting [10]), in test [2] (setting [11]), in test [2] (setting [12]) and in test [2] (setting [13]) was 0 to 29% each time. Besides, the pest or weed control at 140 g/ha is 0 to 29% in test [1] (setting [3]); 0 to 29% in test [1] (setting [4]); 95 to 100% in test [1] (setting [5]); 0 to 29% in test [1] (setting [6]); 0 to 29% in test [1] (setting [7]); 0 to 29% in test [1] (setting [8]). Also, the pest or weed control at 140 g/ha is 0 to 29% in test [2] (setting [9]); 45 to 59% in test [2] (setting [10]); 0 to 29% in test [2] (setting [11]); 0 to 29% in test [2] (setting [12]); 0 to 29% in test [2] (setting [13]).
